Laboratory results reported in patent US9150555B2, “Amide derivative and use thereof” (Mitsubishi Tanabe Pharma Corporation, priority 2010, dated 2015).
Counter-ions that a name gives are not always drawn.

Legend:
[1] = biological target: hERG (Homo sapiens, UniProt Q12809); test: Effects on hERG current (whole-cell clamping); conditions: human, HEK 293 cells that express hERG
Description: Dimethylsulfoxide was used as a vehicle and hERG-expressed HEK 293 cells (Cytomyx) were used as test cells. Test cells were once cultured and subdivided and were stored under frozen condition in liquid nitrogen. In the study, thawed and subcultured cells having less than 30 of the passage number were used. Test cells were cultured in a carbon dioxide incubator BNP-110M (Tabai Espec Corp.) at 37±1° C., and 5.0±0.5% of carbon dioxide concentration. The component of culture medium was MEM (Minimum Essential Medium) supplemented with 10 vol % fetal bovine serum (non-activated), 1 mmol/L sodium pyruvate, 0.1 mmol/L non-essential amino acid, 100 U/mL penicillin with 100 μg/mL streptomycin. To select gene-expressing cells, 400 μg/mL G418 Sulphate (Invitrogen) was added to the culture medium. In the dishes for the measurement, the medium which not contain G418 Sulphate (Invitrogen) was used.
As to seeding of cells for measurement, subcultured cells which became confluent were treated with 0.25% trypsin-solution containing 1 mmol/L EDTA (Invitrogen) to remove from the plate, and seeded on sterilized collagen-coated cover glass (Iwaki, AGC Techno Glass Co., LTD). The medium was exchanged appropriately, including the day of measurement.
A perfusion method was applied to the experiment. Test cells were perfused (perfusion speed: approximately 4 mL/min) with an external solution containing specified concentrations of test compounds (component of external solution: 137 mmol/L of sodium chloride, 4 mmol/L of potassium chloride, 10 mmol/L of HEPES, 1.8 mmol/L of calcium chloride, 1 mmol/L of magnesium chloride and 10 mmol/L of glucose; adjusted to pH 7.4±0.1 with sodium hydroxide aqueous solution). […] When effects were observed, the perfusion was continued until the maximum response was observed. […] The data were obtained from one experiment or more and the cells which were incubated in a carbon dioxide incubator after seeding and attached to cover slips were used for the measurement.
A whole-cell clamping method was applied to the measurement. Test cells were perfused (perfusion speed: approximately 4 mL/min) with an external solution (component of external solution: 137 mmol/L of sodium chloride, 4 mmol/L of potassium chloride, 10 mmol/L of HEPES, 1.8 mmol/L of calcium chloride, 1 mmol/L of magnesium chloride and 10 mmol/L of glucose; adjusted to pH 7.4±0.1 with sodium hydroxide aqueous solution). A glass electrode with a resistance of 2 to 6 MΩ, filled with an internal solution (component: 130 mmol/L of potassium chloride, 1 mmol/L of magnesium chloride, 5 mmol/L of EGTA, 10 mmol/L of HEPES and 5 mmol/L of ATP adjusted to pH 7.2±0.1 with sodium hydroxide aqueous solution) was used. After rupturing cell membrane with glass electrode, the cell membrane voltage was held at −80 mV via a patch clamp software (pCLAMP9 [Axon CNS], Molecular Devices) using patch clamp amplifier (EPC8, HEKA). […] Test cells and the cell-attached cover glass were changed every treatment. Temperature of the fluid in a perfusion fluid tank was 24±2° C.
The obtained current was recorded on a computer via a patch clamp amplifier using patch clamp software. An evaluation item was a tail peak current.
A tail peak current was analyzed using analyzing software (Clampfit 9 [Axon CNS], MolecularDevices). Each 2 pulses of before and after perfusion of test compound for each concentration was analyzed, and a peak values of the tail current on the pulses were determined. The inhibition ratio was determined according to the following equation:

[2] = system: IL-17 production of mouse spleen cells stimulated by rm-IL-23; test: Production of IL-17 induced when mouse spleen cells were stimulated by recombinant mouse interleukin-23 (rm-IL-23); assay type: cell-based; conditions: inhibition of IL-17 production, DBA/1J mouse spleen cells, rm-IL-23 1 nmol/L, ELISA
Description: Effect on Production of IL-17 Induced when Mouse Spleen Cells were Stimulated by Recombinant Mouse Interleukin-23 (rm-IL-23)
An RPMI1640 (Sigma-Aldrich) was used as a medium, to which penicillin G potassium (50 units/mL; Gibco), streptomycin (50 μg/mL; Gibco) and 2-mercaptoethanol (50 μmol/l; Sigma-Aldrich) were added, and then 10% of fetal calf serum (FCS; Cell Culture Technology) inactivated at 56° C. for 30 minutes was added and used in the Test. The test compound was dissolved in dimethylsulfoxide and diluted with 10% FCS-containing RPMI1640 medium to a desired concentration and used in the test. The spleens were aseptically taken out from 6-7 week-old male DBA/1J mice (Charles River Japan, Inc.) and a single cell suspension of spleen cells was prepared and hemolyzed by hypotonic treatment with a mixture of 0.83% aqueous solution of ammonium chloride and Tris-HCl buffer of pH 7.65 (9:1). A cell suspension prepared by 10% FCS-containing RPMI1640 medium was added to flat-bottomed 96 well microtestplate at 2×10^5 cells/well. Test compounds and rm-IL-23 (R&D systems) were diluted with a medium to 1 to 1,000 nmol/L, and 1 nmol/L of the final concentration respectively, which were added and cultured at 37° C., 5% carbon dioxide and 95% air for 72 hours. After completion of the culture, culture supernatant was sampled and an amount of IL-17 production was determined by ELISA method. After sampling the supernatant, WST-8 (Seikagaku Corporation) was added at 10 μl/well and cultured at 37° C., 5% carbon dioxide and 95% air for 4 hours. Then, absorbance (O.D.: Optical Density) at 450 nm was measured by a microplate reader and the value was adopted as an index of cell survivability. An inhibition rate (%) was calculated according to the following formula on the basis of an average of an amount of IL-17 production and a O.D. values of the well containing a test compound of each concentration.
Based on the dose-response curve obtained by plotting the inhibition rate in the longitudinal axis and concentration in the horizontal axis, the concentration of the compound which inhibits the level to 50% of the value of the control group (IC50; nmol/L) was determined by linear regression analysis. The results was shown in the next Table 1

[3] = pH 7.4, hERG inhibition rate (%) (1 μM), 1 μM, tail peak current, hERG-expressed HEK 293 cells

Chain of hERG (Q12809 whole entry): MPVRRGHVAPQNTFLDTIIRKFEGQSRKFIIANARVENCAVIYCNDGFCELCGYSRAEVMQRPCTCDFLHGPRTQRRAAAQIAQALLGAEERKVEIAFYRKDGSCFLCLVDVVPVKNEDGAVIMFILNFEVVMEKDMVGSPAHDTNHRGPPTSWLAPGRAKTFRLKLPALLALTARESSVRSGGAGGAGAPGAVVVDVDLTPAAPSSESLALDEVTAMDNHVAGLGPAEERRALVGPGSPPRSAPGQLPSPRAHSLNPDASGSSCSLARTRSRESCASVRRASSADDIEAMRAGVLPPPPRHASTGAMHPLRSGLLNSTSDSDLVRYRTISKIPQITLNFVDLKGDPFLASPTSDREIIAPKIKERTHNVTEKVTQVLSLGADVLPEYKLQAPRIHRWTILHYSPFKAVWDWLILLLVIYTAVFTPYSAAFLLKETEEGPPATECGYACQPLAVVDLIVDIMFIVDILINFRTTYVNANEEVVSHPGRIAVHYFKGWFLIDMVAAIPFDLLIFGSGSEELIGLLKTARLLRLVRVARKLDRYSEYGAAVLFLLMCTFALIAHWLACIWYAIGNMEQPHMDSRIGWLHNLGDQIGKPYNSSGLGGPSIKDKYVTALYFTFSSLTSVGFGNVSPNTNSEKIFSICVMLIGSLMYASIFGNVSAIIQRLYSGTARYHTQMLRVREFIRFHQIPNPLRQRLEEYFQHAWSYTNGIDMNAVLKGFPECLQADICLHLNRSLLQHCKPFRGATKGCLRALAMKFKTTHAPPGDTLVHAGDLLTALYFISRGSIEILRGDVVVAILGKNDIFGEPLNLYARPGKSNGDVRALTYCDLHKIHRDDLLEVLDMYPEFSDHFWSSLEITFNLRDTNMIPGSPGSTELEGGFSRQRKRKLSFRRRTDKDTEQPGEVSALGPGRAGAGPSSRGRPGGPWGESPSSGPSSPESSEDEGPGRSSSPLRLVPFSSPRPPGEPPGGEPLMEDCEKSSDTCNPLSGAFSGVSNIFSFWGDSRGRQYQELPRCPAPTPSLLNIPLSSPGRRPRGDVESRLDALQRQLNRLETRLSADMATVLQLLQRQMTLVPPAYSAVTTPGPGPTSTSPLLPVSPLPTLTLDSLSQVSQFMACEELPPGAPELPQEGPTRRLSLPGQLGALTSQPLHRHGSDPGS

Compound | inhibition at 1 µM [1, 3] [%] | IC50 ([2]; Mus musculus, 72 h) [nM] | inhibition at 1 µM ([1]; pH 7.4) [%] | IC50 ([2]; 72 hours) [nM]
Cc1cc(NC(=O)c2cnn(-c3ccc(C(F)(F)F)cn3)c2C)cnc1C1=CCC(N(C)C(=O)C(F)(F)F)CC1 (stereo not shown) [Example D265, 5-Methyl-N-(5-methyl-6-{4-[N-methyl-N-(2,2,2-trifluoroacetyl)amino]cyclohex-1-en-1-yl}pyridin-3-yl)-1-[5-(trifluoromethyl)pyridin-2-yl]-1H-pyrazole-4-carboxamide] | 35.9 | 4.91 | – | –
Cc1cc(NC(=O)c2cnn(-c3ccc(C(F)(F)F)cn3)c2C)cnc1C1=CCC(C(=O)NC(C)(C)C)CC1 (stereo not shown) [Example D268] | 9.8 | 155 | – | –
Cc1cc(NC(=O)c2cnn(-c3ccc(C4CC4)cn3)c2C)cnc1C1=CCC(C(=O)NC(C)(C)C)CC1 (stereo not shown) [Example D269] | 14.1 | 207 | – | –
Cc1c(C(=O)Nc2ccc([C@]3(C#N)CC[C@]4(C=CCO4)CC3)nc2)cnn1-c1ccc(C(F)(F)F)cn1 [Example D270] | 0.5 | 55.8 | – | –
CC[C@]1(O)CC[C@](C#N)(c2ccc(NC(=O)c3cnn(-c4ccc(Cl)cc4)c3C)cn2)CC1 [Example D275] | 14.4 | 55.3 | – | –
CC[C@]1(O)CC[C@](C#N)(c2ccc(NC(=O)c3cnn(-c4ccc(C(F)(F)F)cn4)c3C)cn2)CC1 [Example D276] | 8.9 | 71.2 | – | –
Cc1c(C(=O)Nc2ccc([C@]3(C#N)CC[C@]4(CCCO4)CC3)nc2)cnn1-c1ccc(C(F)(F)F)cn1 [Example D278, N-[6-(c-8-Cyano-r-1-oxaspiro[4.5]decan-8-yl)pyridin-3-yl]-5-methyl-1-[5-(trifluoromethyl)-pyridin-2-yl]-1H-pyrazole-4-carboxamide] | 13.6 | 50.2 | – | –
Cc1ccc(-n2ncc(C(=O)Nc3ccc([C@]4(C#N)CC[C@]5(CCCO5)CC4)nc3)c2C)cc1 [Example D279] | 12.8 | 112 | – | –
Cc1c(C(=O)Nc2cnc(C3=CCC(N4CCOCC4)CC3)c(F)c2)cnn1-c1ccc(C(F)(F)F)cn1 (stereo not shown) [Example D282] | 11.9 | 174 | – | –
Cc1c(C(=O)Nc2ccc([C@]3(C#N)CC[C@@H](N(C)C(=O)C(C)(C)C)CC3)nc2)cnn1-c1ccc(C(F)(F)F)cn1 [Example D288, N-(6-{r-1-Cyano-c-4-[N-(2,2-dimethylpropanoyl)-N-methylamino]cyclohexan-1-yl}pyridin-3-yl)-5-methyl-1-[5-(trifluoromethyl)pyridin-2-yl]-1H-pyrazole-4-carboxamide] | 5.9 | 5.38 | – | –
Cc1c(C(=O)Nc2ccc([C@]3(C#N)CC[C@@H](N(C)C(=O)C(C)C)CC3)nc2)cnn1-c1ccc(C(F)(F)F)cn1 [Example D289, N-{6-[r-1-Cyano-c-4-(N-isobutyryl-N-methylamino)cyclohexan-1-yl]pyridin-3-yl}-5-methyl-1-[5-(trifluoromethyl)pyridin-2-yl]-1H-pyrazole-4-carboxamide] | 11.6 | 87.2 | – | –
Cc1nc(-n2ncc(C(=O)Nc3ccc([C@]4(C#N)CC[C@@H](N5CCOCC5)CC4)nc3)c2C)ccc1C(F)(F)F [Example D299] | 40.6 | 112 | – | –
CC(C)c1c(C(=O)Nc2ccc([C@]3(C#N)CC[C@@H](N4CCOCC4)CC3)nc2)cnn1-c1ccc(C(F)(F)F)cn1 [Example D300, N-{6-[r-1-Cyano-c-4-(morpholin-4-yl)cyclohexyl]pyridin-3-yl}-5-isopropyl-1-[5-(trifluoromethyl)pyridin-2-yl]-1H-pyrazole-4-carboxamide] | 26.1 | 182 | – | –
Cc1c(C(=O)Nc2ccc(C3=CCC(N4CCOCC4)CC3)nc2)cnn1-c1ccc(C(F)(F)F)cn1 (stereo not shown) [Example E1, 5-Methyl-N-{6-[4-(morpholin-4-yl)cyclohex-1-en-1-yl]pyridin-3-yl}-1-[5-(trifluoromethyl)-pyridin-2-yl]-1H-pyrazole-4-carboxamide mesylate] | 34.7 | 62.3 | – | –
Cc1c(C(=O)Nc2ccc([C@]3(O)CC[C@@H](N4CCOCC4)CC3)nc2)cnn1-c1ccc(C(F)(F)F)cn1 [Example E2, N-{6-[r-1-Hydroxy-c-4-(morpholin-4-yl)cyclohexyl]pyridin-3-yl}-5-methyl-1-[5-(trifluoromethyl)pyridin-2-yl]-1H-pyrazole-4-carboxamide] | 24.4 | 179 | – | –
Cc1c(C(=O)Nc2ccc(C3(C#N)CCC4(CC3)OCCO4)nc2)cnn1-c1ccc(C(F)(F)F)cc1 [Example E6] | 36.9 | 28.5 | – | –
N#CC1(c2ccc(NC(=O)c3ccc(-c4ccc(Cl)cc4)o3)cn2)CCC2(CC1)OCCO2 [Example E18] | 8.8 | 50.4 | – | –
Cc1c(C(=O)Nc2ccc(C3CCC(=O)CC3)nc2)cnn1-c1ccc(F)cc1F [Example E21] | 8.3 | 180 | – | –
Cc1ccc(-n2ncc(C(=O)Nc3ccc(C4CCC(=O)CC4)nc3)c2C)cc1 [Example E22] | 2.7 | 328 | – | –
Cc1cc(NC(=O)c2cnn(-c3ccc(C(F)(F)F)cc3)c2C)cnc1C1=CCOCC1 [Example E30, N-[6-(3,6-Dihydro-2H-pyran-4-yl)-5-methylpyridin-3-yl]-5-methyl-1-[4-(trifluoromethyl)-phenyl]-1H-pyrazole-4-carboxamide] | 10.7 | 149 | – | –
Cc1c(C(=O)Nc2ccc(C3(C#N)CCC(=O)CC3)nc2)cnn1-c1ccc(C(F)(F)F)cn1 [Example F2, N-[6-(1-Cyano-4-oxocyclohexyl)pyridin-3-yl]-5-methyl-1-[5-(trifluoromethyl)pyridin-2-yl]-1H-pyrazole-4-carboxamide hydrochloride] | 22.4 | 53.4 | – | –
Cc1c(C(=O)Nc2ccc(C3(C#N)CCC(=O)CC3)nc2)cnn1-c1ccc(F)cc1 [Example F6] | 6.8 | 107 | – | –
Cc1c(C(=O)Nc2ccc(C3(C#N)CCC(=O)CC3)nc2)cnn1-c1ccc(Cl)c(Cl)c1 [Example F8] | 15.4 | 61.6 | – | –
Cc1c(C(=O)Nc2ccc(C3(C#N)CCC(=O)CC3)nc2)cnn1-c1ccc(F)c(F)c1 [Example F10] | – | – | 8 | 278
Cc1c(C(=O)Nc2ccc(C3CCC(=O)CC3)nc2)cnn1-c1ccc(C(C)(C)C)cc1 [Example F26] | 8.1 | 321 | – | –
Cc1cc(NC(=O)c2cnn(-c3ccc(C(F)(F)F)cn3)c2C)cnc1C1CCC(=O)CC1 [Example F32] | 17.9 | 146 | – | –
Cc1c(C(=O)Nc2ccc([C@H]3CC[C@H](O)CC3)nc2)cnn1-c1ccc(C(C)(C)C)cc1 [Example G4, trans-1-(4-tert-Butylphenyl)-N-[6-(4-hydroxycyclohexyl)pyridin-3-yl]-5-methyl-1H-pyrazole-4-carboxamide] | 5.2 | 48 | – | –
Cc1cc(NC(=O)c2cnn(-c3ccc(C(F)(F)F)cc3)c2C)cnc1C1=CCC(O)CC1 (stereo not shown) [Example G5, N-[6-(4-Hydroxycyclohex-1-en-1-yl)-5-methylpyridin-3-yl]-5-methyl-1-[4-(trifluoromethyl)-phenyl]-1H-pyrazole-4-carboxamide] | 11.7 | 86.6 | – | –
Cc1c(C(=O)Nc2ccc([C@]3(C#N)CC[C@@H](O)CC3)nc2)cnn1-c1ccc(Cl)c(Cl)c1 [Example G8] | 1.9 | 56.4 | – | –
